Laboratory results taken from patent US20210277020A1, “HETEROCYCLIC COMPOUNDS AS MONOACYLGLYCEROL LIPASE INHIBITORS” (Hoffmann-La Roche Inc., priority 2018, published 2021).
pIC50: −log10 of the molar value.

Target: T1, MAGL (Homo sapiens, UniProt Q99685)
T1 sequence (Q99685 1-303): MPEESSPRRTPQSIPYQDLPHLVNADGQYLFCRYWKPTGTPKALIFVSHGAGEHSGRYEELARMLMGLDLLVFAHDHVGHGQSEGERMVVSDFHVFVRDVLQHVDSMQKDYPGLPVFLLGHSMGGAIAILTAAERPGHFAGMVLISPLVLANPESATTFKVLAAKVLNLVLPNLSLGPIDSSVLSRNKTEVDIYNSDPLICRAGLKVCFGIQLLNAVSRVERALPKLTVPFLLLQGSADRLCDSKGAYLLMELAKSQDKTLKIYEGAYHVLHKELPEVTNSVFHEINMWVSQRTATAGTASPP
Assay: 2-AG assay: MAGL inhibition followed by hydrolysis of 2-arachidonoylglycerol to arachidonic acid, mass spectrometry
Assay type: biochemical
Settings: measured in 2-AG assay (footnote [a]); substrate 2-arachidonoylglycerol 8 μM, 30 min at RT
Description: Alternatively, compounds were profiled for MAGL inhibitory activity by determining the enzymatic activity by following the hydrolysis of the natural substrate, 2-arachidonoylglycerol, resulting in arachidonic acid, which can be followed by mass spectrometry. This assay is hereinafter abbreviated “2-AG assay”.
Detection by mass spectrometry in the present 2-AG assay has the advantage over known optical assays that the natural enzyme substrate, 2-arachidonoylglycerol, can be used instead of structurally unrelated compounds needed for optical readouts (such as 4-NPA). It thereby delivers more relevant data for activity determination, reduces false positives and generally adds to data quality. In addition, this assay reduces the analysis time from about 10 minutes per sample with standard methods to under 10 seconds per sample. This allows for using the present 2-AG assay in a method for high throughput screening of compounds for their MAGL inhibitory activity.
The 2-AG assay was carried out in 384 well assay plates (PP, Greiner Cat #784201) in a total volume of 20 μL. Compound dilutions were made in 100% DMSO (VWR Chemicals 23500.297) in a polypropylene plate in 3-fold dilution steps to give a final concentration range in the assay from 12.5 μM to […]. 0.25 μL compound dilutions (100% DMSO) were added to 9 μL MAGL in assay buffer (50 mM TRIS (GIBCO, 15567-027), 1 mM EDTA (Fluka, 03690-100 mL), 0.01% (v/v) Tween. After shaking, the plate was incubated for 15 min at RT. To start the reaction, 10 μL 2-arachidonoylglycerol in assay buffer was added. The final concentrations in the assay was […] and 8 μM 2-arachidonoylglyerol. After shaking and 30 min incubation at RT, the reaction was quenched by the addition of 40 μL of acetonitrile containing 4 μM of d8-arachidonic acid. The amount of arachidonic acid was traced by an online SPE system (Agilent Rapidfire) coupled to a triple quadrupole mass spectrometer (Agilent 6460). A C18 SPE cartridge (G9205A) was used in an acetonitrile/water liquid setup. The mass spectrometer was operated in negative electrospray mode following the mass transitions 303.1→259.1 for arachidonic acid and 311.1→267.0 for d8-arachidonic acid. The activity of the compounds was calculated based on the ratio of intensities [arachidonic acid/d8-arachidonic acid].
In a preferred embodiment, the method for determining the MAGL inhibitory activity of a test compound according to the invention, comprises: • (i) providing a solution of a test compound; • (ii) adding the solution of step (i) to a solution of MAGL; • (iii) shaking the mixture obtained from step (ii); • (iv) incubating the mixture obtained from step (iii); • (v) adding a solution of 2-arachidonoylglycerol; • (vi) incubating the mixture obtained from step (v); • (vii) adding a solution of d8-arachidonic acid; and • (viii) determining the ratio of intensities arachidonic acid/d8-arachidonic acid using a mass spectrometer.

| pIC50 | Compound |
| --- | --- |
| 8.05 | O=C1CO[C@H]2CCN(C(=O)N3CC(C#Cc4ccc(OC(F)(F)F)cc4)C3)C[C@H]2N1 [Example 166, (4aR,8aS)-6-[3-[2-[4-(Trifluoromethoxy)phenyl]ethynyl]azetidine-1-carbonyl]-4,4a,5,7,8,8a-hexahydropyrido[4,3-b][1,4]oxazin-3-one] |
| 7.92 | O=C1CO[C@H]2CCN(C(=O)N3CC(C#Cc4ccc(Cl)cc4F)C3)C[C@H]2N1 [Example 174, (4aR,8aS)-6-[3-[2-(4-Chloro-2-fluorophenyl)ethynyl]azetidine-1-carbonyl]-4,4a,5,7,8,8a-hexahydropyrido[4,3-b][1,4]oxazin-3-one] |
| 8.15 | O=C1CO[C@H]2CCN(C(=O)N3CC(C#Cc4ccccc4Br)C3)C[C@H]2N1 [Example 171, (4aR,8aS)-6-[3-[2-(2-Bromophenyl)ethynyl]azetidine-1-carbonyl]-4,4a,5,7,8,8a-hexahydropyrido[4,3-b][1,4]oxazin-3-one] |
| 6.46 | CN(C(=O)C1(c2cccc(C(F)(F)F)c2)CC1)C1CCN(C(=O)N2CC[C@@H]3OCC(=O)N[C@@H]3C2)CC1 [Example 82] |
| 8.10 | O=C1CO[C@H]2CCN(C(=O)N3CC(C#Cc4cccc(Cl)c4)C3)C[C@H]2N1 [Example 165, (4aR,8aS)-6-[3-[2-(3-Chlorophenyl)ethynyl]azetidine-1-carbonyl]-4,4a,5,7,8,8a-hexahydropyrido[4,3-b][1,4]oxazin-3-one] |
| 7.42 | O=C1CO[C@H]2CCN(C(=O)N3CC(C#Cc4ccc(C5(O)CC5)cc4)C3)C[C@H]2N1 [Example 180, (4aR,8aS)-6-[3-[2-[4-(1-Hydroxycyclopropyl)phenyl]ethynyl]azetidine-1-carbonyl]-4,4a,5,7,8,8a-hexahydropyrido[4,3-b][1,4]oxazin-3-one] |
| 7.64 | O=C1CO[C@H]2CCN(C(=O)N3CCC(C#Cc4ccc(F)cc4Cl)CC3)C[C@H]2N1 [Example 128, (+)-(4aR,8aS)-6-[4-[2-(2-Chloro-4-fluorophenyl)ethynyl]piperidine-1-carbonyl]-4,4a,5,7,8,8a-hexahydropyrido[4,3-b][1,4]oxazin-3-one] |
| 7.92 | O=C1CO[C@H]2CCN(C(=O)N3CC(CNC(c4ccccc4Cl)C(F)(F)F)C3)C[C@H]2N1 (stereo partly drawn) [Example 70, (4aR,8aS)-6-(3-(((1-(2-Chlorophenyl)-2,2,2-trifluoroethyl)amino)methyl)azetidine-1-carbonyl)hexahydro-2H-pyrido[4,3-b][1,4]oxazin-3(4H)-one] |
| 7.48 | O=C1CO[C@H]2CCN(C(=O)N3CC(C#Cc4ccccc4OC(F)F)C3)C[C@H]2N1 [Example 175, (4aR,8aS)-6-[3-[2-[2-(Difluoromethoxy)phenyl]ethynyl]azetidine-1-carbonyl]-4,4a,5,7,8,8a-hexahydropyrido[4,3-b][1,4]oxazin-3-one] |
| 8.40 | CN(CC1CN(C(=O)N2CC[C@@H]3OCC(=O)N[C@@H]3C2)C1)C(c1ccc(C(F)(F)F)cc1)C(F)(F)F (stereo partly drawn) [Example 80, (4aR,8aS)-6-(3-((Methyl(2,2,2-trifluoro-1-(4-(trifluoromethyl)phenyl)ethyl)amino)methyl)azetidine-1-carbonyl)hexahydro-2H-pyrido[4,3-b][1,4]oxazin-3 (4H)-one] |
| 7.74 | O=C1CO[C@H]2CCN(C(=O)N3CC(CNC(c4cccc(C(F)(F)F)c4)C(F)(F)F)C3)C[C@H]2N1 (stereo partly drawn) [Example 68, (4aR,8aS)-6-(3-(((2,2,2-Trifluoro-1-(3-(trifluoromethyl)phenyl)ethyl)amino)methyl)azetidine-1-carbonyl)hexahydro-2H-pyrido[4,3-b][1,4]oxazin-3(4H)-one] |
| 8.15 | O=C1CO[C@H]2CCN(C(=O)N3CC(SCc4ccc(C(F)(F)F)cc4F)C3)C[C@H]2N1 [Example 156, (4aR,8aS)-6-[3-[[2-Fluoro-4-(trifluoromethyl)phenyl]methylsulfanyl]azetidine-1-carbonyl]-4,4a,5,7,8,8a-hexahydropyrido[4,3-b][1,4]oxazin-3-one] |
| 5.96 | CN(c1ccc(C(F)(F)F)cc1)C1CN(C(=O)N2CC[C@@H]3OCC(=O)N[C@@H]3C2)C1 (racemic) [Example 137, rac-(4aR,8aS)-6-[3-[N-methyl-4-(trifluoromethyl)anilino]azetidine-1-carbonyl]-4,4a,5,7,8,8a-hexahydropyrido[4,3-b][1,4]oxazin-3-one] |
| 7.74 | O=C1CO[C@H]2CCN(C(=O)N3CC(C#Cc4ccc(Cl)s4)C3)C[C@H]2N1 [Example 187, (4aR,8aS)-6-[3-[2-(5-Chlorothiophen-2-yl)ethynyl]azetidine-1-carbonyl]-4,4a,5,7,8,8a-hexahydropyrido[4,3-b][1,4]oxazin-3-one] |
| 7.51 | Cc1ccccc1C#CC1CCN(C(=O)N2CC[C@@H]3OCC(=O)N[C@@H]3C2)CC1 [Example 194, (4aR,8aS)-6-(4-(o-Tolylethynyl)piperidine-1-carbonyl)hexahydro-2H-pyrido[4,3-b][1,4]oxazin-3(4H)-one] |
| 6.29 | O=C1CO[C@H]2CCN(C(=O)N3CC(C#CC4(O)CCCC4)C3)C[C@H]2N1 [Example 198, (4aR,8aS)-6-[3-[2-(1-Hydroxycyclopentyl)ethynyl]azetidine-1-carbonyl]-4,4a,5,7,8,8a-hexahydropyrido[4,3-b][1,4]oxazin-3-one] |
| 7.25 | N#CC1(c2ccc(C#CC3CN(C(=O)N4CC[C@@H]5OCC(=O)N[C@@H]5C4)C3)cc2)CC1 [Example 178, 1-[4-[2-[1-[(4aR,8aS)-3-Oxo-4,4a,5,7,8,8a-hexahydropyrido[4,3-b][1,4]oxazine-6-carbonyl]azetidin-3-yl]ethynyl]phenyl]cyclopropane-1-carbonitrile] |
| 9.00 | O=C1CO[C@H]2CCN(C(=O)N3CC(C#Cc4ccc(C5CC5)cc4Cl)C3)C[C@H]2N1 [Example 162, (4aR,8aS)-6-(3-((2-Chloro-4-cyclopropylphenyl)ethynyl)azetidine-1-carbonyl)hexahydro-2H-pyrido[4,3-b][1,4]oxazin-3(4H)-one] |
| 6.98 | O=C1CO[C@H]2CCN(C(=O)N3CC(CNC(c4ccccc4)C(F)(F)F)C3)C[C@H]2N1 (stereo partly drawn) [Example 71, (4aR,8aS)-6-(3-(((2,2,2-Trifluoro-1-phenylethyl)amino)methyl)azetidine-1-carbonyl)hexahydro-2H-pyrido[4,3-b][1,4]oxazin-3(4H)-one] |
| 6.98 | O=C1CO[C@H]2CCN(C(=O)N3CC(Sc4ccc(C(F)(F)F)cc4Cl)C3)C[C@H]2N1 [Example 143, (4aR,8aS)-6-[3-[2-Chloro-4-(trifluoromethyl)phenyl]sulfanylazetidine-1-carbonyl]-4,4a,5,7,8,8a-hexahydropyrido[4,3-b][1,4]oxazin-3-one] |
| 5.34 | O=C1CO[C@H]2CCN(C(=O)N3CC(NC(=O)c4ccc(F)cc4Cl)C3)C[C@H]2N1 [Example 78, 2-chloro-4-fluoro-N-(1-((4aR,8aS)-3-oxooctahydro-2H-pyrido[4,3-b][1,4]oxazine-6-carbonyl)azetidin-3-yl)benzamide] |
| 8.70 | O=C1CO[C@H]2CCN(C(=O)N3CC(C#Cc4ccc(C(F)(F)F)cc4Cl)C3)C[C@H]2N1 [Example 200, (4aR,8aS)-6-(3-((2-Chloro-4-(trifluoromethyl)phenyl)ethynyl)azetidine-1-carbonyl)hexahydro-2H-pyrido[4,3-b][1,4]oxazin-3(4H)-one] |
| 6.18 | O=C1CO[C@H]2CCN(C(=O)N3CC(CS(=O)(=O)c4ccc(C(F)(F)F)cc4Cl)C3)C[C@H]2N1 [Example 152, (4aR,8aS)-6-[3-[[2-Chloro-4-(trifluoromethyl)phenyl]sulfonylmethyl]azetidine-1-carbonyl]-4,4a,5,7,8,8a-hexahydropyrido[4,3-b][1,4]oxazin-3-one] |
